Measurements reported in US7022484B2, “Methods for treating neuropathological states and neurogenic inflammatory states and methods for identifying compounds useful therein” (Board of Regents, The University of Texas System, priority 2000, dated 2006).

Tests used:
rat arthritis model = test: Paw withdrawal latency (PWL) to radiant heat in rat kaolin/carrageenan knee joint inflammation model; type: in vivo; details: spinal microdialysis pre-treatment; 4 hours after induction of arthritis
Description: All studies followed the guidelines of the Institute Animal Care and Use Committee, in accordance with the guidelines of the National Institutes of Health. All animals were hosted in a room with a constant ambient temperature of 22° C. and 12 hour light/dark cycle with free access to food and water. Eighty-five Sprague-Dawley rats (250–300 grams) total were used in experiments conducted for biochemical, behavioral, and immunocytochemistry studies. […] On Day 2 baseline behavioral testing was followed by infusion of agents for 1.5 hours (pretreatment) prior to induction of knee joint inflammation under brief anesthesia. Behavioral testing was repeated 4 hours after induction of joint inflammation. Anesthetized animals were either transcardially perfused with aldehydes for immunohistochemical studies or fresh, frozen tissues collected for biochemical studies.
A microdialysis fiber was implanted into the spinal dorsal horn of anesthetized rats (sodium pentobarbital, 50 mg/kg) one day prior to the induction of arthritis according to the procedure of Skilling et al. (J. Neurochem., 51:127–132 (1988)), as described in Sluka et al. (Neurosci. Lett., 145:141–144 (1992)). Briefly, a small midline incision was made in the skin over the T12 vertebral level. The vertebrae were cleared of muscle and two 1 millimeter (mm) holes were drilled in the lateral aspect of both sides of the T12 vertebrae to expose the L4 spinal segment. A microdialysis fiber ([…], 45,000 MW cut-off, Hospal, AN69, Hospal Industrie, Meyzieu, France), was passed transversely across the deep dorsal horn and stabilized with dental cement. The microdialysis fiber was then passed through the holes in the vertebrae and transversely through the dorsal horn of the spinal cord. A 2 mm section of the microdialysis fiber lies in the dorsal horn at the level of L3–4 segment. The tubing was coated with epoxy except for a permeable portion passing through the spinal grey matter. The microdialysis fiber was connected to PE20 tubing (Becton Dickinson and Company, San Mateo, Calif.) which was tunneled under the skin to the nape of the neck. Alternatively as a systemic control for drug administration, the microdialysis fiber was implanted only in the subcutaneous tissue over the back muscle and tunneled to the neck. Artificial cerebrospinal fluid (aCSF) was made as described by Sorkin et al. (J. Neurosci. Methods, 23, 131–138 (1988)) and was infused (5 microliters/minute) for 1.5 hours and then the tube was heat-sealed for use on the following day.
Dose response curves were generated for Genistein with animals receiving Genistein spinally at concentration of 0.2 mM (n=3), 0.5 mM (n=3), 1 mM (n=9), and 2 mM (n=3). Animals received Lavendustin A or B spinally at concentrations of 0.1 mM (n=3), 0.5 mM (n=3), and 1 mM (n=5) as a positive and negative control for Genistein. […] Daidzein was tested at a dose of 1 mM (n=3). […] Eight additional animals received the vehicle, 50% DMSO in aCSF, as a control.
An acute inflammatory response restricted to the knee joint can be induced by the injection of 3% kaolin and 3% carrageenan (in sterile saline; 0.1 ml; pH 7.4) into the joint cavity while the animal is briefly anesthetized with sodium methohexital (Brevital, 60 mg/kg, i.p.). Kaolin and carrageenan were obtained from Fisher Scientific, St. Louis, Mo. The knee joint is flexed manually until the rat awakes (approximately 5–10 minutes). In this arthritis model in the awake rat, localized joint swelling, as well as limping and guarding of the limb, are well developed at 4 hours (Sluka et al., Pain, 59, 95–100 (1994)) when behavioral testing begins.
Fifty-five rats were used for behavioral studies. Four hours after induction of the arthritis, the joint is swollen and increased withdrawal responses to radiant heat and spontaneous guarding of the limb were noted. The increased responsiveness to noxious stimuli indicates the presence of secondary hyperalgesia. […]

NMDA currents = details: patch clamp studies; cited from earlier work
[1] = tested on: protein tyrosine kinase (PTK); details: cited from earlier work
NR1 subunit [2] = test: Western blot of NR1 in cytosolic and nuclear extracts of SW982 cells; type: cell-based, human; details: 12 hours, increasing concentrations of NMDA
Description: The cultured cell lines used in these studies were the human neuroblastoma clonal line, SHSY5Y, and the human synovial sarcoma clonal line, SW982, both available through the American Tissue Type Culture Collection (item number CRL 2266 and HTB-93, respectively). Cells were grown in Dulbecco's Modification of Eagles Medium (DMEM) without L-glutamine, with 4.5 grams/Liter glucose, and with 10% bovine fetal serum in a tissue culture incubator at 37° C. in a gaseous mixture of O2/CO2. Cells were routinely split as necessary to maintain proper cell density. Cells were removed from plates by adding TRYPSIN/EDTA in Hank's Balanced Salt solution. After cell counts, approximately 10,000 cells were plated per well in a culture dish. For experiments, the cells were plated into 35 mm Petri dishes or 6- or 24-well plates as needed. […]
Western blot analysis was used to measure NR1 in both nuclear and cytosolic or total protein extracts using established methods (Kaufmann et al., J. Neurochem., 76, 1099–1108 (2001)). […] After three washes with Tris-buffered saline, immunoreactive bands were detected by a chemiluminescent Western blot detection kit (Amersham, Buckingamshire, UK, Catalog Number RPN2106) according to the manufacturer's instructions.

NR1 subunit [3] = test: Immunocytochemistry of NR1 translocation in neuroblastoma clonal line SHSY5Y; type: cell-based, human; details: neuroblastoma clonal cell model
NR1 subunit [4] = test: Immunocytochemistry of NR1 translocation in synovial clonal line SW982; type: cell-based, human; details: synovial clonal cell model
Description: The cultured cell lines used in these studies were the human neuroblastoma clonal line, SHSY5Y, and the human synovial sarcoma clonal line, SW982, both available through the American Tissue Type Culture Collection (item number CRL 2266 and HTB-93, respectively). Cells were grown in Dulbecco's Modification of Eagles Medium (DMEM) without L-glutamine, with 4.5 grams/Liter glucose, and with 10% bovine fetal serum in a tissue culture incubator at 37° C. in a gaseous mixture of O2/CO2. Cells were routinely split as necessary to maintain proper cell density. Cells were removed from plates by adding TRYPSIN/EDTA in Hank's Balanced Salt solution. After cell counts, approximately 10,000 cells were plated per well in a culture dish. For experiments, the cells were plated into 35 mm Petri dishes or 6- or 24-well plates as needed.
For immunocytochemistry experiments and some western blot experiments, SW982 cells were exposed to glutamate (1 μM to 10 μM), or glutamate analog NMDA (or related glutamate compound)(5 μM) and Genistein (10 mM). At various timepoints of exposure, including 4, 12, and 24 hours, cells were collected for Western blot measurement of NR1 or fixed with aldehydes and stained to visualize the location of glutamate receptor subunit NR1 using a specific antibody directed to either the C-terminus or the N-terminus of the NR1 protein. […]

SMILES	development of secondary hyperalgesia (rat arthritis model)	effect on NMDA currents (NMDA currents)	PTK inhibitory activity [1]	NR1 in the cytosol (NR1 subunit [2])	NR1 in the nuclear compartment (NR1 subunit [2])	NR translocation to the nucleus (NR1 subunit [3])	NR translocation to the nucleus (NR1 subunit [4])
O=c1c(-c2ccc(O)cc2)coc2cc(O)ccc12 [Daidzein]	ineffective in altering the nociceptive outcome of knee joint inflammation	has no effect on NMDA currents	lacks PTK inhibitory activity	–	–	–	–
CN[C@H](CC(=O)O)C(=O)O [NMDA, N-methyl-D-aspartate]	–	–	–	dose-dependent reduction of NR1 in the cytosol	appearance of NR1 in the nuclear compartment	replicated the visualization of NR translocation to the nucleus	replicated the visualization of NR translocation to the nucleus
